Reference: patent US20130310344A1, “N-ACYLSULFONAMIDE APOPTOSIS PROMOTERS” (ASTRAZENECA AB, priority 2010, published 2013)
Structures can show the parent of a compound that is named as a salt.

Tests used:
[1] = molecular target: T1, Bcl-XL (Homo sapiens, UniProt Q07817); assay: Bcl-XL FP assay (competitive fluorescence polarization binding assay, FITC-Bim BH-3 peptide tracer); settings: C-terminal 6×HIS tagged Bcl-XL (aa 1-209), 0.8 nM; 2 nM FITC-Bim peptide tracer
T1 construct: a C-terminal 6×HIS tagged Bcl-XL (aa 1-209); 6xHis (C)
Source text: (§1) Bcl-xL and Bcl-2 FP binding affinity of compound(s) of Formulae (I), (I-a), (I-b), (I-c), (I-d) and/or (I-e) may be determined using a variety of known methods. One such assay is a sensitive and quantitative in vitro binding assay using fluorescence polarization (“FP”) described by Wang, J.-L.; Zhang, Z-J.; Choksi, S.; Sjam. S.; Lu, Z.; Croce, C. M.; Alnemri, E. S.; Komgold, R.; Huang, Z. Cell permeable Bcl-2 binding peptides: a chemical approach to apoptosis induction in tumor cells. Cancer Res. 2000, 60, 1498-1502).
(§2) Additionally, the binding affinity of compound(s) of Formulae (I), (I-a), (I-b), (I-c), (I-d) and/or (I-e) to Bcl-2 protein in vitro was determined by a competitive binding assay based on fluorescence polarization. For example, fluorescence polarization (“FP”) assays may be developed using a c-terminal 6×HIS tagged Bcl-2 (aa 1-204) and a C-terminal 6×HIS tagged Bcl-XL (aa 1-209). […] Dilutions of either Bcl-2 (1.3 nM) or Bcl-XL (0.8 nM) may be added to serial dilutions of antagonist and incubated for one hour prior to the addition of 2 nM of fluorescent peptide tracer (Anaspec, Fremont, Calif.) in the assay buffer. Final assay buffer conditions may be 20 mM HEPES, pH 7.5, 1 mM DTT, 0.005% Tween-20 and 50 mM NaCl. Samples may be read after 20-minute incubation. Fluorescence polarization values may be plotted as a function of the antagonist concentration.

[2] = molecular target: T2, Bcl-2 (Homo sapiens, UniProt P10415); assay: Bcl-2 FP assay (competitive fluorescence polarization binding assay, FITC-Bim BH-3 peptide tracer); settings: c-terminal 6×HIS tagged Bcl-2 (aa 1-204), 1.3 nM; 2 nM FITC-Bim peptide tracer
T2 construct: a c-terminal 6×HIS tagged Bcl-2 (aa 1-204); 6xHis (C)
Source text: as §1, §2

T1 sequence (Q07817 1-209): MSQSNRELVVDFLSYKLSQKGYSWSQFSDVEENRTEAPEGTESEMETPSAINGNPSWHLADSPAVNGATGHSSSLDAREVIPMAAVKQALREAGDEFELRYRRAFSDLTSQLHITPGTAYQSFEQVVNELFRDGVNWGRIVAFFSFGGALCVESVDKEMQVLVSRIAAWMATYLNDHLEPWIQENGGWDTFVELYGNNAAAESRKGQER
T2 sequence (P10415 1-204): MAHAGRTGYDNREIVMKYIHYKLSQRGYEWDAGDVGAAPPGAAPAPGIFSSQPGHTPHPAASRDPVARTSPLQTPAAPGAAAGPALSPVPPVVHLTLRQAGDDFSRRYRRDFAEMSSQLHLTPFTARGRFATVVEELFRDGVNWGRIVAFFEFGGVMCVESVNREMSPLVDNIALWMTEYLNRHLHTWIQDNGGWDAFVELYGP

Molecule | IC50 [1] | IC50 [2]
CN(CCO)CC[C@H](CSc1ccccc1)Nc1ccc(S(=O)(=O)NC(=O)c2ccc(N3CCC([C@@H](N)c4ccccc4-c4ccc(Cl)cc4)CC3)cc2)cc1S(=O)(=O)C(F)(F)F [Example 11, 4-(4-((R)-amino(4′-chlorobiphenyl-2-yl)methyl)piperidin-1-yl)-N-(4-((R)-4-((2-hydroxyethyl)(methyl)amino)-1-(phenylthio)butan-2-ylamino)-3-(trifluoromethylsulfonyl)phenylsulfonyl)benzamide, formic acid salt] | 3 nM | 4 nM
CN(C)[C@@H](c1ccccc1-c1ccc(Cl)cc1)C1CCN(c2ccc(C(=O)NS(=O)(=O)c3ccc(N[C@H](CCN4CCOCC4)CSc4ccccc4)c(S(=O)(=O)C(F)(F)F)c3)cc2)CC1 [Example 36, 4-(4-((R)-(4′-chlorobiphenyl-2-yl)(dimethylamino)methyl)piperidin-1-yl)-N-(4-((R)-4-morpholino-1-(phenylthio)butan-2-ylamino)-3-(trifluoromethylsulfonyl)phenylsulfonyl)benzamide, hydrochloride salt] | 18 nM | 24 nM
O=C(NS(=O)(=O)c1ccc(N[C@H](CCN2CCN(CCO)CC2)CSc2ccccc2)c(S(=O)(=O)C(F)(F)F)c1)c1ccc(N2CCC([C@@H](O)c3ccccc3-c3ccc(Cl)cc3)CC2)cc1 [Example 1, 4-(4-((R)-(4′-chlorobiphenyl-2-yl)(hydroxy)methyl)piperidin-1-yl)-N-(4-((R)-4-(4-(2-hydroxyethyl)piperazin-1-yl)-1-(phenylthio)butan-2-ylamino)-3-(trifluoromethylsulfonyl)phenylsulfonyl)benzamide, formic acid salt] | 1 nM | < 1 nM
N[C@@H](c1ccccc1-c1ccc(Cl)cc1)C1CCN(c2ccc(C(=O)NS(=O)(=O)c3ccc(N[C@H](CCN4CCOCC4)CSc4ccccc4)c(S(=O)(=O)C(F)(F)F)c3)cc2)CC1 [Example 33, 4-(4-((R)-amino(4′-chlorobiphenyl-2-yl)methyl)piperidin-1-yl)-N-(4-((R)-4-morpholino-1-(phenylthio)butan-2-ylamino)-3-(trifluoromethylsulfonyl)phenylsulfonyl)benzamide, formic acid salt] | 33 nM | 30 nM
N[C@@H](c1ccccc1-c1ccc(Cl)cc1)C1CCN(c2ccc(C(=O)NS(=O)(=O)c3ccc(N[C@H](CCN4CCN(CCO)CC4)CSc4ccccc4)c(S(=O)(=O)C(F)(F)F)c3)cc2)CC1 [Example 13, 4-(4-((R)-amino(4′-chlorobiphenyl-2-yl)methyl)piperidin-1-yl)-N-(4-((R)-4-(4-(2-hydroxyethyl)piperazin-1-yl)-1-(phenylthio)butan-2-ylamino)-3-(trifluoromethylsulfonyl)phenylsulfonyl)benzamide, formic acid salt] | 15 nM | 16 nM
CCN(CC)C[C@@H]1COCCN1CC[C@H](CSc1ccccc1)Nc1ccc(S(=O)(=O)NC(=O)c2ccc(N3CCC([C@@H](O)c4ccccc4-c4ccc(Cl)cc4)CC3)cc2)cc1S(=O)(=O)C(F)(F)F [Example 21, 4-(4-((R)-(4′-chlorobiphenyl-2-yl)(hydroxy)methyl)piperidin-1-yl)-N-(4-((R)-4-((R)-3-((diethylamino)methyl)morpholino)-1-(phenylthio)butan-2-ylamino)-3-(trifluoromethylsulfonyl)phenylsulfonyl)benzamide] | 0.5 nM | 0.3 nM
CCN(CCO)CC[C@H](CSc1ccccc1)Nc1ccc(S(=O)(=O)NC(=O)c2ccc(N3CCC([C@@H](O)c4ccccc4-c4ccc(Cl)cc4)CC3)cc2)cc1S(=O)(=O)C(F)(F)F [Example 4, 4-(4-((R)-(4′-chlorobiphenyl-2-yl)(hydroxy)methyl)piperidin-1-yl)-N-(4-((R)-4-(ethyl(2-hydroxyethyl)amino)-1-(phenylthio)butan-2-ylamino)-3-(trifluoromethylsulfonyl)phenylsulfonyl)benzamide] | 0.8 nM | 0.5 nM
O=C(NS(=O)(=O)c1ccc(N[C@H](CCN2CCOC[C@H]2CO)CSc2ccccc2)c(S(=O)(=O)C(F)(F)F)c1)c1ccc(N2CCC([C@@H](O)c3ccccc3-c3ccc(Cl)cc3)CC2)cc1 [Example 24, 4-(4-((R)-(4′-chlorobiphenyl-2-yl)(hydroxy)methyl)piperidin-1-yl)-N-(4-((R)-4-((R)-3-(hydroxymethyl)morpholino)-1-(phenylthio)butan-2-ylamino)-3-(trifluoromethylsulfonyl)phenylsulfonyl)benzamide, formic acid salt] | – | 0.4 nM
O=C(NS(=O)(=O)c1ccc(N[C@H](CCN(CCO)CCO)CSc2ccccc2)c(S(=O)(=O)C(F)(F)F)c1)c1ccc(N2CCC([C@@H](O)c3ccccc3-c3ccc(Cl)cc3)CC2)cc1 [Example 5, N-(4-((R)-4-(bis(2-hydroxyethyl)amino)-1-(phenylthio)butan-2-ylamino)-3-(trifluoromethylsulfonyl)phenylsulfonyl)-4-(4-((R)-(4′-chlorobiphenyl-2-yl)(hydroxy)methyl)piperidin-1-yl)benzamide, formic acid salt] | 1 nM | 0.8 nM
NCC(=O)N[C@@H](c1ccccc1-c1ccc(Cl)cc1)C1CCN(c2ccc(C(=O)NS(=O)(=O)c3ccc(N[C@H](CCN4CCOCC4)CSc4ccccc4)c(S(=O)(=O)C(F)(F)F)c3)cc2)CC1 [Example 35, 4-(4-((R)-(2-aminoacetamido)(4′-chlorobiphenyl-2-yl)methyl)piperidin-1-yl)-N-(4-((R)-4-morpholino-1-(phenylthio)butan-2-ylamino)-3-(trifluoromethylsulfonyl)phenylsulfonyl)benzamide hydrochloride salt] | 22 nM | 38 nM
O=C(NS(=O)(=O)c1ccc(N[C@H](CCN2CCOCC2)CSc2ccccc2)c(S(=O)(=O)C(F)(F)F)c1)c1ccc(N2CCC([C@@H](O)c3ccccc3-c3ccc(Cl)cc3)CC2)cc1 [Example 15, 4-(4-((R)-(4′-chlorobiphenyl-2-yl)(hydroxy)methyl)piperidin-1-yl)-N-(4-((R)-4-morpholino-1-(phenylthio)butan-2-ylamino)-3-(trifluoromethylsulfonyl)phenylsulfonyl)benzamide] | 1 nM | 3 nM
O=C(NS(=O)(=O)c1ccc(N[C@H](CCN2CCO[C@@H](CO)C2)CSc2ccccc2)c(S(=O)(=O)C(F)(F)F)c1)c1ccc(N2CCC([C@@H](O)c3ccccc3-c3ccc(Cl)cc3)CC2)cc1 [Example 22, 4-(4-((R)-(4′-chlorobiphenyl-2-yl)(hydroxy)methyl)piperidin-1-yl)-N-(4-((R)-4-((R)-2-(hydroxymethyl)morpholino)-1-(phenylthio)butan-2-ylamino)-3-(trifluoromethylsulfonyl)phenylsulfonyl)benzamide, formic acid salt] | 3 nM | 0.6 nM
O=C(NS(=O)(=O)c1ccc(N[C@H](CCN2CCO[C@H](CO)C2)CSc2ccccc2)c(S(=O)(=O)C(F)(F)F)c1)c1ccc(N2CCC([C@@H](O)c3ccccc3-c3ccc(Cl)cc3)CC2)cc1 [Example 23, 4-(4-((R)-(4′-chlorobiphenyl-2-yl)(hydroxy)methyl)piperidin-1-yl)-N-(4-((R)-4-((S)-2-(hydroxymethyl)morpholino)-1-(phenylthio)butan-2-ylamino)-3-(trifluoromethylsulfonyl)phenylsulfonyl)benzamide, formic acid salt] | 1 nM | 1 nM
O=C(NS(=O)(=O)c1ccc(N[C@H](CCN2CCOC[C@@H]2CO)CSc2ccccc2)c(S(=O)(=O)C(F)(F)F)c1)c1ccc(N2CCC([C@@H](O)c3ccccc3-c3ccc(Cl)cc3)CC2)cc1 [Example 25, 4-(4-((R)-(4′-chlorobiphenyl-2-yl)(hydroxy)methyl)piperidin-1-yl)-N-(4-((R)-4-((S)-3-(hydroxymethyl)morpholino)-1-(phenylthio)butan-2-ylamino)-3-(trifluoromethylsulfonyl)phenylsulfonyl)benzamide, hydrochloride salt] | – | 0.4 nM
4-(4-((R)-(4′-chlorobiphenyl-2-yl)(cyano)methyl)piperidin-1-yl)-N-(4-((R)-4-morpholino-1-(phenylthio)butan-2-ylamino)-3-(trifluoromethylsulfonyl)phenylsulfonyl)benzamide and 4-(4-((S)-(4′-chlorobiphenyl-2-yl)(cyano)methyl)piperidin-1-yl)-N-(4-((R)-4-morpholino-1-(phenylthio)butan-2-ylamino)-3-(trifluoromethylsulfonyl)phenylsulfonyl)benzamide, mixture of diastereomers [Example 17] | 1 nM | –
